Measured values taken from patent US10597388B2, “Pyridazinone herbicides” (FMC CORPORATION, priority 2014, dated 2020).

Legend:
Assay in all cases: Test D controlled growth environment herbicide test, pre- and postemergence
Type in all cases: in vivo
[1] = system: deadnettle (henbit deadnettle, Lamium amplexicaule)
Procedure, shortened: (§1)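 Rating is visual, 0–100 scale (100 = complete control), made against untreated plants 14–21 d after treatment in controlled growth conditions. Postemergence sprays went onto 1- to 4-leaf plants in peat medium; preemergence sprays onto silt loam after sowing; formulation included a surfactant.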

[2] = system: bromegrass, downy (downy bromegrass, Bromus tectorum)
Procedure, shortened: as §1

[3] = system: Russian thistle (Salsola kali)
Procedure, shortened: as §1

[4] = system: wheat, winter (winter wheat, Triticum aestivum)
Procedure, shortened: as §1

[5] = system: mustard, wild (wild mustard, Sinapis arvensis)
Procedure, shortened: as §1

[6] = system: lambsquarters (Chenopodium album)
Procedure, shortened: as §1

[7] = system: speedwell (bird's-eye speedwell, Veronica persica)
Procedure, shortened: as §1

[8] = system: barley, winter (winter barley, Hordeum vulgare)
Procedure, shortened: as §1

[9] = system: windgrass (Apera spica-venti)
Procedure, shortened: as §1

[10] = system: chickweed (common chickweed, Stellaria media)
Procedure, shortened: as §1

[11] = system: galium (catchweed bedstraw, Galium aparine)
Procedure, shortened: as §1

[12] = system: field poppy (Papaver rhoeas)
Procedure, shortened: as §1

kochia (Kochia scoparia) = system: kochia (Kochia scoparia)
Procedure, shortened: as §1

[13] = Postemergence, 31 g ai/ha, scale 0 to 100 (0 no effect, 100 complete control)
[14] = Postemergence, 125 g ai/ha, visual rating on scale 0 (no effect) to 100 (complete control), 14 to 21 d
[15] = Postemergence, 250 g ai/ha, scale 0 to 100 (0 no effect, 100 complete control)
[16] = Preemergence, 62 g ai/ha, scale 0 to 100 (0 no effect, 100 complete control)
[17] = Preemergence, 125 g ai/ha, scale 0 to 100 (0 no effect, 100 complete control)
[18] = Preemergence, 250 g ai/ha, scale 0 to 100 (0 no effect, 100 complete control)
[19] = postemergence, 62 g ai/ha, scale 0 to 100, 0 no effect, 100 complete control

COc1nn(C)c(=O)c(-c2c(C)ccc3ccccc23)c1O [Compound 54]
75: Plant response rating, Bromegrass, Downy [2, 15] | Speedwell plant response rating [7, 13] | Plant response rating, Windgrass [9, 15]
100: Deadnettle plant response rating [1, 13] | Plant response rating, Deadnettle [1, 14] | Plant response rating, Deadnettle [1, 15] | Plant response rating, Deadnettle [1, 19] | Plant response rating, Russian Thistle [3, 15] | Mustard, Wild plant response rating [5, 13] | Plant response rating, Mustard, Wild [5, 14] | Plant response rating, Mustard, Wild [5, 15] | Plant response rating, Mustard, Wild [5, 16] | Plant response rating, Mustard, Wild [5, 17] | Plant response rating, Mustard, Wild [5, 18] | Plant response rating, Mustard, Wild [5, 19] | Plant response rating, Lambsquarters [6, 15] | Plant response rating, Speedwell [7, 14] | Plant response rating, Speedwell [7, 15] | Plant response rating (scale of 0 to 100), Speedwell ([7]; Preemergence, 31 g ai/ha) | Plant response rating, Speedwell [7, 17] | Plant response rating, Speedwell [7, 18] | Plant response rating, Speedwell [7, 19] | Chickweed plant response rating [10, 13] | Plant response rating, Chickweed [10, 14] | Plant response rating, Chickweed [10, 15] | Plant response rating, Chickweed [10, 18] | Plant response rating, Chickweed [10, 19] | Galium plant response rating [11, 13] | Plant response rating, Galium [11, 14] | Plant response rating, Galium [11, 15] | Plant response rating, Galium [11, 18] | Plant response rating, Galium [11, 19] | Plant response rating, Field Poppy [12, 14] | Plant response rating, Field Poppy [12, 15] | Plant response rating, Field Poppy [12, 17] | Plant response rating, Field Poppy [12, 18] | Plant response rating, Field Poppy [12, 19] | Plant response rating, Kochia (kochia (Kochia scoparia); [14]) | Plant response rating, Kochia (kochia (Kochia scoparia); [15])
5: Plant response rating, Wheat, Winter [4, 19] | Plant response rating, Barley, Winter [8, 14]
85: Plant response rating (scale of 0 to 100), Chickweed ([10]; Preemergence, 31 g ai/ha) | Plant response rating, Galium [11, 17]
95: Plant response rating, Deadnettle [1, 18] | Lambsquarters plant response rating [6, 13] | Plant response rating, Lambsquarters [6, 14] | Plant response rating, Lambsquarters [6, 17] | Plant response rating, Lambsquarters [6, 18] | Plant response rating, Lambsquarters [6, 19] | Plant response rating, Speedwell [7, 16] | Plant response rating, Windgrass [9, 18] | Plant response rating, Chickweed [10, 17] | Plant response rating, Kochia (kochia (Kochia scoparia); [19])
40: Plant response rating, Bromegrass, Downy [2, 18]
45: Plant response rating, Windgrass [9, 19] | Plant response rating, Galium [11, 16] | Plant response rating, Kochia (kochia (Kochia scoparia); [18])
65: Plant response rating (scale of 0 to 100), Lambsquarters ([6]; Preemergence, 31 g ai/ha) | Plant response rating, Lambsquarters [6, 16]
10: Bromegrass, Downy plant response rating [2, 13]
50: Plant response rating (scale of 0 to 100), Mustard, Wild ([5]; Preemergence, 31 g ai/ha) | Plant response rating, Windgrass [9, 16]
25: Plant response rating, Russian Thistle [3, 17] | Plant response rating, Wheat, Winter [4, 14] | Plant response rating (scale of 0 to 100), Kochia (kochia (Kochia scoparia); Preemergence, 31 g ai/ha)
35: Plant response rating, Russian Thistle [3, 18] | Plant response rating, Wheat, Winter [4, 18] | Windgrass plant response rating [9, 13]
15: Plant response rating, Bromegrass, Downy [2, 16] | Plant response rating, Bromegrass, Downy [2, 17] | Plant response rating, Wheat, Winter [4, 17] | Kochia plant response rating (kochia (Kochia scoparia); [13])
90: Plant response rating, Russian Thistle [3, 14] | Plant response rating, Chickweed [10, 16] | Plant response rating (scale of 0 to 100), Field Poppy ([12]; Preemergence, 31 g ai/ha)
80: Russian Thistle plant response rating [3, 13] | Plant response rating, Russian Thistle [3, 19]
0: Plant response rating (scale of 0 to 100), Deadnettle ([1]; Preemergence, 31 g ai/ha) | Plant response rating (scale of 0 to 100), Bromegrass, Downy ([2]; Preemergence, 31 g ai/ha) | Plant response rating (scale of 0 to 100), Russian Thistle ([3]; Preemergence, 31 g ai/ha) | Plant response rating, Russian Thistle [3, 16] | Wheat, Winter plant response rating [4, 13] | Plant response rating (scale of 0 to 100), Wheat, Winter ([4]; Preemergence, 31 g ai/ha) | Plant response rating, Wheat, Winter [4, 16] | Barley, Winter plant response rating [8, 13] | Plant response rating (scale of 0 to 100), Barley, Winter ([8]; Preemergence, 31 g ai/ha) | Plant response rating, Barley, Winter [8, 16] | Plant response rating, Barley, Winter [8, 17] | Plant response rating, Barley, Winter [8, 18] | Plant response rating, Barley, Winter [8, 19] | Plant response rating (scale of 0 to 100), Windgrass ([9]; Preemergence, 31 g ai/ha) | Plant response rating (scale of 0 to 100), Galium ([11]; Preemergence, 31 g ai/ha)
60: Plant response rating, Deadnettle [1, 16] | Plant response rating, Kochia (kochia (Kochia scoparia); [16])
70: Plant response rating, Deadnettle [1, 17] | Plant response rating, Windgrass [9, 14] | Plant response rating, Windgrass [9, 17] | Field Poppy plant response rating [12, 13]
30: Plant response rating, Wheat, Winter [4, 15] | Plant response rating, Barley, Winter [8, 15] | Plant response rating, Kochia (kochia (Kochia scoparia); [17])
55: Plant response rating, Bromegrass, Downy [2, 14] | Plant response rating, Bromegrass, Downy [2, 19] | Plant response rating, Field Poppy [12, 16]
